One experiment deals with T1, Coagulation factor VII (Homo sapiens, UniProt P08709).
T1 sequence (P08709 whole entry): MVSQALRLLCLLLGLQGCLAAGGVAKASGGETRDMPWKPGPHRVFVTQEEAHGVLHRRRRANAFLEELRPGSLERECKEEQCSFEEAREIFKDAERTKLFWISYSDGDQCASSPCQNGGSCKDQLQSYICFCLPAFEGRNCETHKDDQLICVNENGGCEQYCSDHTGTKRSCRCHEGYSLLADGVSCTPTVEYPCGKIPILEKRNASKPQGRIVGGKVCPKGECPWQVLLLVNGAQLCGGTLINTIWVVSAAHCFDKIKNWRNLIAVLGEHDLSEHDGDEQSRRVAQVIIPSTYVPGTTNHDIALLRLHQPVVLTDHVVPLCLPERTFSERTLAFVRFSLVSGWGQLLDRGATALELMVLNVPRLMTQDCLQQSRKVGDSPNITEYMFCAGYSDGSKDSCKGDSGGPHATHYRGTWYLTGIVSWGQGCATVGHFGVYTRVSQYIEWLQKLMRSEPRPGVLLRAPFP
Nature of the experiment: Inhibition of factor 7a.

A further experiment has as its target Trypsin (Homo sapiens, UniProt P07477+P07478+P35030). Nature of the experiment: Inhibition of trypsin. The experiment is classed as protein assay.
The next experiment has as its target Coagulation factor X (Homo sapiens, UniProt P00742). As to the kind of experiment: Inhibition of factor 10a.
In the next experiment the target is Prothrombin (Homo sapiens, UniProt P00734). Nature of the experiment: Inhibition of factor 2a.

This is an account of results in ChEMBL document CHEMBL1145416, “Design, synthesis, and biological evaluation of pyrazinones containing novel P1 needles as inhibitors of TF/VIIa” (Bioorg Med Chem Lett, 2007).

Sequence of Coagulation factor X (P00742 41-179 limits assumed): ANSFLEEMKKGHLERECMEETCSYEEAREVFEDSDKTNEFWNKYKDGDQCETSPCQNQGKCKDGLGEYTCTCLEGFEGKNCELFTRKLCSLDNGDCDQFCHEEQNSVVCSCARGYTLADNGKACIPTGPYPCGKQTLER
Sequence of Coagulation factor X (P00742 235-488 limits assumed): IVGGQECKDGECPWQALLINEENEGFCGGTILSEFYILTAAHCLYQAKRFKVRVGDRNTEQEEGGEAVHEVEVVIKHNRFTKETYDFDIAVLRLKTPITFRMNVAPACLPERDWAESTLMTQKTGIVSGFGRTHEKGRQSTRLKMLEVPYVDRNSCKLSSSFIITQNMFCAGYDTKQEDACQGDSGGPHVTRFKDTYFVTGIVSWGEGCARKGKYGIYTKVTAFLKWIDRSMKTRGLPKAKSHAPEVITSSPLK

As a reminder, the IC50 is the concentration that gives 50% inhibition. A low value points to greater potency in that assay. With `N=C(N)c1ccc(CNC(=O)Cn2c(-c3cccc(N)c3)c(Cl)nc(NC3CCC3)c2=O)cc1O`, the IC50 at Coagulation factor VII is 0.19 µM; against Trypsin, 7.55 µM; against Coagulation factor X, over 100 µM; against Prothrombin it was over 100 µM.

Regarding `N=C(N)c1ccc(CNC(=O)Cn2c(-c3cccc(N)c3)c(Cl)nc(NC3CCC3)c2=O)c(C(F)(F)F)c1`, the IC50 against Coagulation factor VII is 0.79 µM; against Trypsin it was 0.23 µM; at Coagulation factor X it was over 30 µM; on Prothrombin it was over 30 µM.

Take `N=C(N)c1c(O)c(F)c(CNC(=O)Cn2c(-c3cccc(N)c3)c(Cl)nc(NC3CCC3)c2=O)c(F)c1F`: the IC50 on Coagulation factor VII is 0.11 µM; at Coagulation factor X, over 100 µM; against Prothrombin it was over 100 µM.

For `N=C(N)c1c(F)c(F)c(CNC(=O)Cn2c(-c3cccc(N)c3)c(Cl)nc(NC3CCC3)c2=O)c(F)c1F`, the results for the IC50 on Coagulation factor VII, against Coagulation factor X and against Prothrombin were 5.48 µM, over 30 µM and over 100 µM, respectively.

For `N/N=C(/N)c1ccc(CNC(=O)Cn2c(-c3cccc(N)c3)c(Cl)nc(NC3CCC3)c2=O)cc1`, the IC50 on Coagulation factor X and at Prothrombin was over 100 µM each time.

For the compound `Nc1cccc(-c2c(Cl)nc(NC3CCC3)c(=O)n2CC(=O)NCc2ccc3c(N)noc3c2)c1`, the IC50 at Trypsin, against Coagulation factor X and at Prothrombin was over 30 µM throughout.

Turning to `N=C(N)c1ccc(C(=O)NCCn2c(-c3cccc(N)c3)c(Cl)nc(NC3CCC3)c2=O)cc1`, on Coagulation factor X, the IC50 was over 30 µM.

As to `Nc1cccc(-c2c(Cl)nc(NC3CCC3)c(=O)n2CC(=O)NCc2ccc3c(N)nsc3c2)c1`, the IC50 at Coagulation factor X was over 30 µM.

For the compound `N=c1[nH][nH]c(=O)c2cc(CNC(=O)Cn3c(-c4cccc(N)c4)c(Cl)nc(NC4CCC4)c3=O)ccc12`, the IC50 at Coagulation factor VII, against Coagulation factor X and at Prothrombin was over 30 µM throughout.

For `Nc1cccc(-c2c(Cl)nc(NC3CCC3)c(=O)n2CC(=O)NCc2ccc3c(N)nccc3c2)c1`, the IC50 against Coagulation factor VII, against Trypsin, against Coagulation factor X and at Prothrombin was over 30 µM in each case.

As to `Nc1cccc(-c2c(Cl)nc(NC3CCC3)c(=O)n2CC(=O)NCCc2cnc[nH]2)c1`, the IC50 against Coagulation factor VII, on Trypsin, at Coagulation factor X and on Prothrombin was over 30 µM in each case.

For the compound `Nc1cccc(-c2c(Cl)nc(NC3CCC3)c(=O)n2CC(=O)NCCc2cnc(N)[nH]2)c1`, the IC50 against Coagulation factor VII is over 30 µM; against Trypsin, 6.2 µM; on Coagulation factor X it was over 30 µM; against Prothrombin, over 30 µM.

Take `NC1=NCCSc2cc(CNC(=O)Cn3c(-c4cccc(N)c4)c(Cl)nc(NC4CCC4)c3=O)ccc21`: the IC50 on Coagulation factor VII, against Trypsin, against Coagulation factor X and at Prothrombin was over 30 µM in each case.

Turning to `Nc1cccc(-c2c(Cl)nc(NC3CCC3)c(=O)n2CC(=O)NCc2ccnc(N)n2)c1`, the IC50 on Coagulation factor VII, against Coagulation factor X and at Prothrombin was over 30 µM each time.

Turning to `N=C(N)c1ccc(S(=O)(=O)NCCn2c(-c3cccc(N)c3)c(Cl)nc(NC3CCC3)c2=O)cc1`, the IC50 at Coagulation factor VII was 30 µM; at Trypsin, 9.1 µM; on Coagulation factor X, over 30 µM; on Prothrombin, over 30 µM.

As for `Nc1cccc(-c2c(Cl)nc(NC3CCC3)c(=O)n2CC(=O)NCc2ccccc2)c1`, the IC50 against Coagulation factor VII stood at 0.02 µM; on Coagulation factor X it was 0.04 µM; at Prothrombin, 10.6 µM.

On to `N=C(N)c1ccc(CNC(=O)Cn2c(-c3cccc(N)c3)c(Cl)nc(NC3CCC3)c2=O)c(F)c1`, for which the results for the IC50 at Coagulation factor VII, on Trypsin and against Coagulation factor X were 0.04 µM, over 30 µM and 0.05 µM, respectively.

As to `N=C(N)c1ccc(CNC(=O)Cn2c(-c3cccc(N)c3)c(Cl)nc(NC3CCC3)c2=O)cc1F`, the IC50 on Coagulation factor X and at Prothrombin was over 30 µM each time.
